The source of these data is patent US9085632B2, “Biological materials and uses thereof” (PEPTINNOVATE LIMITED, priority 2008, dated 2015).

Entries after “also recorded” stand apart in the source; their conditions may differ. Read-outs that look alike come from different tables or passages of the source.

The test system of test [1] is ovalbumin challenged mice. Particulars: previously demonstrated, Riffo-Vasquez et al. 2004; cited from earlier work.
Test [2] concerns ovalbumin challenged mice. The class given is in vivo. Particulars: 24 h after repeated ovalbumin challenge, 10 μg intra-tracheal; for bronchial hyper-responsiveness to methacholine: FIG. 2; for recruitment of eosinophils to the airways (airways inflammation): percentage of eosinophils vs ovalbumin alone, FIG. 1. The method, then: Allergic inflammation in the lung is induced by 2 intraperitoneal injections of 10 μg of ovalbumin (OVA) in 1 mg of alum with 7 days interval between them. Control animals receive alum only. On day 14, all animals are exposed to an aerosol of OVA for 25 minutes, once a day for 3 consecutive days. All measurements are performed 24 h after the last antigen challenge. […]

The test system of test [3] is spleen cells of C57Bl/6 mice. The class given is cell-based, C57BI/6 mice. Particulars: polymixin B, FIG. 8; for IL-12 release compared with Cpn60.1 at lower concentrations: lower concentrations (0.001-0.1 μg/ml).
In test [4] the test system is ovalbumin challenged mice. Format: in vivo. Particulars: 24 h after repeated ovalbumin challenge; for levels of total IgE circulating in serum: 0.005 μg/mouse, FIG. 13; for levels of IL-5 in BAL fluid: FIG. 12; for recruitment of eosinophils to the airways: Cpn60.1 0.1 and 1 μg, peptide 4 0.005 μg, FIG. 11.
Test [5] deals with human peripheral blood monocytes. In words: Human monocyte assay, TNF-alpha secretion (ELISA). Format: cell-based. Particulars: pre-treatment 1 hour, then LPS (1 ng/ml) 24 hours; FIGS. 18, 20. The method, then:
We have established a human monocyte assay to compare the efficacy of Cpn60.1 and various peptide sequences of this protein. Human monocytes were obtained by density-dependent centrifugation from peripheral venus blood from healthy volunteers. Monocytes were then isolated and purified with cells adjusted to a density of 2×10^6 cells/ml which were incubated for 1 hour 30 minutes. The plates were then washed twice with Hanks solution. 0.9 ml of RPMI medium was then added to each well followed by polymyxin-B (5 μg/ml). 30 minutes later, 0.1 ml of Cpn at 0.0001-1000 ng/ml or peptides were added to the wells. Cells were then incubated at 37° C., 5% CO2 for 1 hour. The medium was removed and cells washed. 0.9 ml of medium was added to each well followed by 0.1 ml of LPS (1 ng/ml) and left to incubate for 24 hours. Supernatant was taken from each well and frozen for Enzyme Linked Immunosorbent Assay (ELISA).
(In an ELISA, binding on a coated surface is turned into a signal by an enzyme label.)

The test system of test [6] is co-culture of dendritic cells and RD11.10 T cells. Nature of the test: IL4 release in dendritic cell / T cell co-culture. Format: cell-based, mice. Particulars: DC pre-treated 10 μg/ml 24 h; 6 days co-culture, anti-CD3 and anti-CD28 24 hours; FIG. 7. The method, then:
(§1) Bone marrow cells from Balb/c mice were collected and cultured for 6 days in complete Dulbecco's Modified Eagle Medium containing 8 ng/ml of mouse GM-CSF. On day 6 of culture, the cells were collected, re-plated for 1 hour for removal of adherent cells, washed and plated at […] in 6-wells plates for analysis of surface markers expression and transference experiments and at 10^5 cells/well in 96-wells plate for cytokine measurements. In other experiments, cells were incubated at 10^6 cells/well for 24 h with the chaperonins and then another further 24 h with LPS (10 ng/ml).
DC pre-treated with Cpn60.1 (10 μg/ml) or Cpn10 (10 μg/ml) for 24 h suppressed the release of IL4 from RD11.10 T cells in a DC/T cell co-culture. After 6 days of culture, cells were stimulated with anti-CD3 and anti-CD28 for further 24 hours and supernatants collected. IL5 and IL10 were not detected in this culture (FIG. 7).

In test [7] the test system is OVA-sensitized recipient mice. In words: Transfer of chaperonin pre-treated dendritic cells to OVA-sensitized recipient mice. Format: in vivo. Particulars: dendritic cells pre-treated in vitro 24 h with 10 μg/ml, given topically to lungs; FIG. 4. The method, then: as §1
The DC's were pre-treated in vitro for 24 h with Cpn10 (10 μg/ml) and then administrated topically to the lungs of OVA-sensitized recipient mice.

The test system of test [8] is bone marrow dendritic cells. Nature of the test: IL-12 production by bone marrow dendritic cells pulsed with chaperonins. The class given is cell-based, Balb/c mice. Particulars: 48 h; Cpn60.1 0.1-30 μg/ml, Cpn10 10 μg/ml; FIG. 5. The method, then:
as §1

Test [9] relates to bone marrow dendritic cells. In words: LPS-induced IL12 production by dendritic cells after chaperonin pre-incubation. Particulars: pre-incubation 24 hours, then LPS (10 ng/ml) further 24 h; FIG. 6. The class given is cell-based, Balb/c mice. The method, then:
as §1
Pre-incubation of DC's with Cpn60.1 but not Cpn10 for 24 hours inhibited IL12 production induced by LPS (FIG. 6).

For the molecule “Cpn60.2: M. tuberculosis chaperonin polypeptide chaperonin 60.2”, the “lung inflammation in a murine model of asthma” value in [1] was “not”. Besides, in [2], the “bronchial hyper-responsiveness to methacholine” value is listed as “not” and the “recruitment of eosinophils to the airways (airways inflammation)” value is recorded as “not”.

In the case of “DGSVVVNKVSELPAGHGLNVNTLSYGDLAAD (listed as Mycobacterium tuberculosis) [Peptide 4]”, the “IL-12 release compared with Cpn60.1 at higher concentration” value in test [3] (higher concentration (0.1-30 μg/ml)) is listed as “reduced effect in comparison to Cpn60.1”. Moreover, the “IL-12 release compared with Cpn60.1 at lower concentrations” value in test [3] is given as “more effective than Cpn60.1”. The entries for the “levels of total IgE circulating in serum” value in test [4] and in test [4] (listed as Cpn60.1-peptide 4) were “affected total IgE production” and “significantly inhibited”, respectively. Besides, the figures for the “levels of IL-5 in BAL fluid” value in test [4] and in [4] (listed as Cpn60.1-peptide 4) were “not caused by an interference with the production of IL-5” and “not significantly inhibited”, respectively. For the same molecule, the “recruitment of total cells to the airways” value in test [4] (intra-nasal, Cpn60.1 1 μg, FIG. 10) is reported as “inhibited”. For the same molecule, the “recruitment of eosinophils to the airways” value was “significant reduction” in [4] (intra-nasal) and “inhibited” in test [4] (intra-nasal, listed as Cpn60.1-peptide 4).

In the case of “LTTETVVVDKPAKAEDHDHHHGHAH (listed as Mycobacterium tuberculosis) [Peptide 6]”, in test [3], the “IL-12 release compared with Cpn60.1 at lower concentrations” value is reported as “less potent effect”.

B1: Cpn10: M. tuberculosis chaperonin polypeptide chaperonin 10 (protein, UniProt P9WPE5 2-100, looked up)
Co-chaperonin GroES: AKVNIKPLEDKILVQANEAETTTASGLVIPDTAKEKPQEGTVVAVGPGRWDEDGEKRIPLDVAEGDTVIYSKYGGTEIKYNGEEYLILSARDVLAVVSK
On to B1, for which, in [5], the “LPS-induced TNF-alpha secretion” value was “does not suppress; also recorded: failed to inhibit”. In addition, in [6], the “levels of IL4 in DC/T cell co-culture” value is given as “suppressed”. Further, the “eosinophils migration to the lung” value in [7] is recorded as “significantly inhibited”. Besides, the “lung inflammation in a murine model of asthma” value in [1] is on record as “suppressed”. In addition, the “IL12 production by dendritic cells” value in test [8] was “induced low levels; also recorded: induced lower levels of IL-12 release in comparison to LPS and Cpn60.1”. Also, in [9], the “IL12 production induced by LPS” value is recorded as “not”. In addition, in test [2], the “bronchial hyper-responsiveness to methacholine” value is recorded as “reduced; also recorded: significantly inhibit” and the “recruitment of eosinophils to the airways (airways inflammation)” value was “inhibited; also recorded: significantly inhibit”. Also, the “levels of cytokines in BAL fluid (cytokine release in the lung)” value in [2] (FIG. 3) was “significantly inhibit”.
